Data published in US11208412B2 (DAEGU-GYEONGBUK MEDICAL INNOVATION FOUNDATION, priority 2017, dated 2021).

How the values were obtained:
Experiment in all cases: Kinase selectivity, DiscoverX scanMAX Kinase assay panel (% control)
Format in all cases: binding
[1] = target: T1, kinases of the scanMAX Kinase assay panel (Homo sapiens, UniProt O76039); details: CDKL5; 1 uM
T1 construct: purchased DiscoverX Co. (contract measurement) scanMAX Kinase assay panel
T1 sequence (O76039 1-960): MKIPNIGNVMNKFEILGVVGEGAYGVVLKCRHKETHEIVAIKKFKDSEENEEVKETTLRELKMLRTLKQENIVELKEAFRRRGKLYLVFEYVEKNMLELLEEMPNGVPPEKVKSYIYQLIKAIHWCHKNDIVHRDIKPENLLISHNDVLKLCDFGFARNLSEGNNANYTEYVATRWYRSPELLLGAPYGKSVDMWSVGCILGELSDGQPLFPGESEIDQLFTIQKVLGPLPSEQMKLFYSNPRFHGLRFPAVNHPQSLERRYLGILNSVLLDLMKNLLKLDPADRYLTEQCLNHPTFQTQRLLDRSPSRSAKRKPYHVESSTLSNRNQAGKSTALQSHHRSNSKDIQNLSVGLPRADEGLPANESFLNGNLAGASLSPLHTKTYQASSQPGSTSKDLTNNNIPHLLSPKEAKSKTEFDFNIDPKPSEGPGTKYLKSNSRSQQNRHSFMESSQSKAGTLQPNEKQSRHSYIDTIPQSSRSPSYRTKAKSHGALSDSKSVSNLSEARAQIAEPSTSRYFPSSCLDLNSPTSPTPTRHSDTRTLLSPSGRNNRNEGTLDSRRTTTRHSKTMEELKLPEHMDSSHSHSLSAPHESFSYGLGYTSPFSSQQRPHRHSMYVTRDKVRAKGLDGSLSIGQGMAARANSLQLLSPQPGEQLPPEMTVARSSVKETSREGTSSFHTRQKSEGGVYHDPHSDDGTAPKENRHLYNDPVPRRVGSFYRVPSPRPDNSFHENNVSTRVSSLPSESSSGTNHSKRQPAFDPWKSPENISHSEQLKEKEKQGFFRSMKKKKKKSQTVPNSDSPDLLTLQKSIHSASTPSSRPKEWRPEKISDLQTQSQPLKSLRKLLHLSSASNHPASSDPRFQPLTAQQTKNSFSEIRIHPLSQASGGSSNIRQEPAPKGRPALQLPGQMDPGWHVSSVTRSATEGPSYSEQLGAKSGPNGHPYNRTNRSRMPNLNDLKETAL
Procedure: (§1) The following experiment was performed to evaluate the activity of the compounds of the present invention to inhibit many enzymes.
(§2) Particularly, the compounds of Examples 8, 64 and 104 were selected among all of those compounds of the invention. DiscoverX Co. was asked to measure the enzyme (kinase) selectivity, and the experiment was performed using scanMAX™ Kinase assay panel.
(§3) Wherein, the concentration of the drug treated to each enzyme was 1 uM in DMSO and the control percentage (% control) was determined by the following Equation 1. (example compound−positive control)/(negative control−positive control)×100 [Equation 1]
(§4) Herein, the positive control indicates the compound showing the % control of 0%, and the negative control indicates DMSO showing the % control of 100%. The enzyme selectivity in the present invention is defined as follows: When the % control for each enzyme is less than 35% (<35%), it is judged that the compound has the activity to the corresponding enzyme.

[2] = target: T2, kinases of the scanMAX Kinase assay panel (Homo sapiens, UniProt Q9Y5S2); details: MRCKB; 1 uM
T2 construct: purchased DiscoverX Co. (contract measurement) scanMAX Kinase assay panel
Procedure: as §1, §2, §3, §4

[3] = target: T3, kinases of the scanMAX Kinase assay panel (Homo sapiens, UniProt Q9UM73); details: ALK; 1 uM
T3 construct: purchased DiscoverX Co. (contract measurement) scanMAX Kinase assay panel
Procedure: as §1, §2, §3, §4

[4] = target: T4, kinases of the scanMAX Kinase assay panel (Homo sapiens, UniProt P54762); details: EPHB1; 1 uM
T4 construct: purchased DiscoverX Co. (contract measurement) scanMAX Kinase assay panel
T4 sequence (P54762 18-984): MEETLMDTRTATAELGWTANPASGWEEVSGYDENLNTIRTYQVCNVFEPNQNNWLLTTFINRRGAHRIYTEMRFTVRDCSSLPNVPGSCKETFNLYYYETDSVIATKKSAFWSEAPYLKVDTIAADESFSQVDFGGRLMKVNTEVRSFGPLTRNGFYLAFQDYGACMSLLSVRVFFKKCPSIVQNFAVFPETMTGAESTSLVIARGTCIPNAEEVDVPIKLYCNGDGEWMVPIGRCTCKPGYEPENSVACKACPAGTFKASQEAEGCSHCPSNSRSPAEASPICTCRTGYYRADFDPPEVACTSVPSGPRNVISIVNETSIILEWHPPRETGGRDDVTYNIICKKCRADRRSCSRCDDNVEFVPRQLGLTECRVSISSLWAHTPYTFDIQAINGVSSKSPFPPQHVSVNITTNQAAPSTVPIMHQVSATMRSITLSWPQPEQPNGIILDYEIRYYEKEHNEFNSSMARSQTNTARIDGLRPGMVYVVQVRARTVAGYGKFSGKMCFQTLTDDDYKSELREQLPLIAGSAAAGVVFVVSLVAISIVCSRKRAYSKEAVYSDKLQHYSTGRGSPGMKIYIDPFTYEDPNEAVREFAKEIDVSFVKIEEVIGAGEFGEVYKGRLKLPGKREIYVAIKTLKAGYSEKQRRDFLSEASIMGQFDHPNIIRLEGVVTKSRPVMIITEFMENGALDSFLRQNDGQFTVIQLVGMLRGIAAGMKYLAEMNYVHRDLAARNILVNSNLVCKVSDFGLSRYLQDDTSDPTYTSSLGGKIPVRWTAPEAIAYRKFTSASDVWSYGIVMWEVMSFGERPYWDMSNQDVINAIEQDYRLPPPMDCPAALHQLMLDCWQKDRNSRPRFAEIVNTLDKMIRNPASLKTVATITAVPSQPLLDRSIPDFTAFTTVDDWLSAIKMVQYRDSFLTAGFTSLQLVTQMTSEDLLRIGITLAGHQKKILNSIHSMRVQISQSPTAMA
Procedure: as §1, §2, §3, §4

[5] = target: T5, kinases of the scanMAX Kinase assay panel (Homo sapiens, UniProt P11309); details: PIM1; 1 uM
T5 construct: purchased DiscoverX Co. (contract measurement) scanMAX Kinase assay panel
Procedure: as §1, §2, §3, §4

[6] = target: T6, kinases of the scanMAX Kinase assay panel (Homo sapiens, UniProt P24723); details: PRKCH; 1 uM
T6 construct: purchased DiscoverX Co. (contract measurement) scanMAX Kinase assay panel
Procedure: as §1, §2, §3, §4

[7] = test system: kinases of the scanMAX Kinase assay panel; details: 1 uM
Procedure: as §1, §2, §3, §4

[8] = target: T7, kinases of the scanMAX Kinase assay panel (Homo sapiens, UniProt P16234); details: PDGFRA; 1 uM
T7 construct: purchased DiscoverX Co. (contract measurement) scanMAX Kinase assay panel
Procedure: as §1, §2, §3, §4

[9] = target: T8, kinases of the scanMAX Kinase assay panel (Homo sapiens, UniProt Q8IVW4); details: CDKL3; 1 uM
T8 construct: purchased DiscoverX Co. (contract measurement) scanMAX Kinase assay panel
Procedure: as §1, §2, §3, §4

T7 sequence (P16234 24-1089): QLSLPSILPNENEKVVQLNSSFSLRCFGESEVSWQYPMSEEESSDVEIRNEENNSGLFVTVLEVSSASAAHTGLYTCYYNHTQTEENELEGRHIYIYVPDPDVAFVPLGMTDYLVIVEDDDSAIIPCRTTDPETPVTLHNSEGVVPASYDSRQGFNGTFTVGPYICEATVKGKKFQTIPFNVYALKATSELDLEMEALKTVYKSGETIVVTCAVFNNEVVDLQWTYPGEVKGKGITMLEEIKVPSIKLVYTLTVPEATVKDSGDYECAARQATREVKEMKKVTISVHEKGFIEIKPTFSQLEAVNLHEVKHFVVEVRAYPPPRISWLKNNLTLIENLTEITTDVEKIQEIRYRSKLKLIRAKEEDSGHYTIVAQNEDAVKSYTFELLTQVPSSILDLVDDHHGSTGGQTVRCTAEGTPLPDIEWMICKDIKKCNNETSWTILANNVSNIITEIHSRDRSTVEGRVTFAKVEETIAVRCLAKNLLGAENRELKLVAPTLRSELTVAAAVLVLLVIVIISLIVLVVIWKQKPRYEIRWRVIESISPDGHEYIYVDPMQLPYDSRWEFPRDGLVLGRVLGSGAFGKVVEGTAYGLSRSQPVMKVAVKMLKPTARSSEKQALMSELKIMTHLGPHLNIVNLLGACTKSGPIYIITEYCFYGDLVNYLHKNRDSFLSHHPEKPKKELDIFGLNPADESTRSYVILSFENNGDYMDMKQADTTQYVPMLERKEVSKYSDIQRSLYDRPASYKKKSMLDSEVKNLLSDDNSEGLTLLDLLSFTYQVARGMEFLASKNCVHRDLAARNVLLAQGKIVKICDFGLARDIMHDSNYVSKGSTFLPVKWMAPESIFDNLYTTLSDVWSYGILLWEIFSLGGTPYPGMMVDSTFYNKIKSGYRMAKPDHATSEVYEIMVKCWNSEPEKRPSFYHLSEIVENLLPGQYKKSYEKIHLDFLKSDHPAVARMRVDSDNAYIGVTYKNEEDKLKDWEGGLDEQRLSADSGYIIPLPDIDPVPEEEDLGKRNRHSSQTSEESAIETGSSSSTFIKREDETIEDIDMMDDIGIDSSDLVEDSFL
T3 sequence (Q9UM73 19-1620): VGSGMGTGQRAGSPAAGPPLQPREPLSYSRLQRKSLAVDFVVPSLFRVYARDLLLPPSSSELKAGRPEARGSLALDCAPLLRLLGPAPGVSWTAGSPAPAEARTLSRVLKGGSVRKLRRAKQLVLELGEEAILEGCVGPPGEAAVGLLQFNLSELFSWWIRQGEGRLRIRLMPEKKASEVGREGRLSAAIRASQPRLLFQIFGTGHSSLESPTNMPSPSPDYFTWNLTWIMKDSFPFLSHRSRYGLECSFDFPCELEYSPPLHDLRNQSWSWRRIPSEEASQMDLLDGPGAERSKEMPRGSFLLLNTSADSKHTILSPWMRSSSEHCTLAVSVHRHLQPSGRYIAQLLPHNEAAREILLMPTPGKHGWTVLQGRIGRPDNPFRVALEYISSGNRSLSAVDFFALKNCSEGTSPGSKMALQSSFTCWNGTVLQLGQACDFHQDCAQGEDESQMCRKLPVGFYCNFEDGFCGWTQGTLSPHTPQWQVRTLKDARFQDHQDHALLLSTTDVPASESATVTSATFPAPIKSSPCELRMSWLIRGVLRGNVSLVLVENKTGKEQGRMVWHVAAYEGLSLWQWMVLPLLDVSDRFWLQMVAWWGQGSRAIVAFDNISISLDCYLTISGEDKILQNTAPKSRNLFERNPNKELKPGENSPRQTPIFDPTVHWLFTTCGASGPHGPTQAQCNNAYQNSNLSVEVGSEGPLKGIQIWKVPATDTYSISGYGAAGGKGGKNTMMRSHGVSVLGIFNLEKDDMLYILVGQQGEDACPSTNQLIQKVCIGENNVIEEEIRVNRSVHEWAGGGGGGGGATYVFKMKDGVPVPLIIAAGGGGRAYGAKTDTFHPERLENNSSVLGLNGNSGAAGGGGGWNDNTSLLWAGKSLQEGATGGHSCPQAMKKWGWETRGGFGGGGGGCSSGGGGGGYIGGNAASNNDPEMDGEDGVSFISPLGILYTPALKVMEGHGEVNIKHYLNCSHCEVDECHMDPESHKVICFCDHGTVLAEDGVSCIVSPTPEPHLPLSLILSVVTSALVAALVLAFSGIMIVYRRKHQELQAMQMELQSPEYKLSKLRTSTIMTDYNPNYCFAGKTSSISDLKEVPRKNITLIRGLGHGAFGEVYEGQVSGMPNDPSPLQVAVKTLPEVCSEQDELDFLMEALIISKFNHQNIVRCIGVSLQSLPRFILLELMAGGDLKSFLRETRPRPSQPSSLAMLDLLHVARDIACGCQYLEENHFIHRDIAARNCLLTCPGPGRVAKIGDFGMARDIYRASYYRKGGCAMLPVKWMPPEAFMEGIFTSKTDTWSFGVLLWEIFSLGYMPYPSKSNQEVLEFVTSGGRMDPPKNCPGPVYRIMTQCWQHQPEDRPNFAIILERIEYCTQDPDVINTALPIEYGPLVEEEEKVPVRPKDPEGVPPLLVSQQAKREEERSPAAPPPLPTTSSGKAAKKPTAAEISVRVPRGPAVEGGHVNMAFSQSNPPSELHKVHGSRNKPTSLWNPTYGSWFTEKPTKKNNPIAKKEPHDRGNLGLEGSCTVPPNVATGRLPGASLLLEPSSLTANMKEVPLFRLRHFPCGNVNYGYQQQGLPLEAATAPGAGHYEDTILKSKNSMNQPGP
T6 sequence (P24723 whole entry): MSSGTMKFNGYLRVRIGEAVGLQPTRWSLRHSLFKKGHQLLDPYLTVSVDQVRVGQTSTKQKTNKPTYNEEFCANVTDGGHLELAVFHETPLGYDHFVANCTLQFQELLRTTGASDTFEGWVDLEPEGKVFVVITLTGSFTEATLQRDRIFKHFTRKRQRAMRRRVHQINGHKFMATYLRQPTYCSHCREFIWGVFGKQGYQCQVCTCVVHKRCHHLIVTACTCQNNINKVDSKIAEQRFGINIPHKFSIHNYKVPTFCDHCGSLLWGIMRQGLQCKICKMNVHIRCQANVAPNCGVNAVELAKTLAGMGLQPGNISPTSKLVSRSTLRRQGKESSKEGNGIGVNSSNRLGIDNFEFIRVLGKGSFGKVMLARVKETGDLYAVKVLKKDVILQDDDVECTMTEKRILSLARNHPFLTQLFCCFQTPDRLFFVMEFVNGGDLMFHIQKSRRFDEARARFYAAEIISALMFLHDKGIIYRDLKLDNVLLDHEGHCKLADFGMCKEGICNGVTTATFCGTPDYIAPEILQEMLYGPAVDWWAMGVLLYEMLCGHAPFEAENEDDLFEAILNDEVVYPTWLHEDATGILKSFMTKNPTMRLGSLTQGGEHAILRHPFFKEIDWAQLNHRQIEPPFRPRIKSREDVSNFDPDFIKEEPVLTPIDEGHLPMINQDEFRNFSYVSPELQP
T8 sequence (Q8IVW4 whole entry): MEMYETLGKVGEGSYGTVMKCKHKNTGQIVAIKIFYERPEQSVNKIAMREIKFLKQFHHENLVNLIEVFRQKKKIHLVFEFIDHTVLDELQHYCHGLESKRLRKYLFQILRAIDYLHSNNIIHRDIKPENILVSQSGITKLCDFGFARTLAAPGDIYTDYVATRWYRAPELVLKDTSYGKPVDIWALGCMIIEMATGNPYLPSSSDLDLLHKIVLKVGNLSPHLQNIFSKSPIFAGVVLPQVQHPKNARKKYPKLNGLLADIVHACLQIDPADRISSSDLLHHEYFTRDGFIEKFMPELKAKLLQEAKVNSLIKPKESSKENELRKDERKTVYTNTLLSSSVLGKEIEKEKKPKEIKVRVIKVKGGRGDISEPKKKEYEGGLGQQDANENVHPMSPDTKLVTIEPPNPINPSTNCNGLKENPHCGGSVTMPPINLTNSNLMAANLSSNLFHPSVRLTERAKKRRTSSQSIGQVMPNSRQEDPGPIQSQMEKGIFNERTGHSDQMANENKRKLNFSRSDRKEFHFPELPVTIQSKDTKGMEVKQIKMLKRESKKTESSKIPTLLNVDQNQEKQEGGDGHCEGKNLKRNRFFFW
T5 sequence (P11309 whole entry): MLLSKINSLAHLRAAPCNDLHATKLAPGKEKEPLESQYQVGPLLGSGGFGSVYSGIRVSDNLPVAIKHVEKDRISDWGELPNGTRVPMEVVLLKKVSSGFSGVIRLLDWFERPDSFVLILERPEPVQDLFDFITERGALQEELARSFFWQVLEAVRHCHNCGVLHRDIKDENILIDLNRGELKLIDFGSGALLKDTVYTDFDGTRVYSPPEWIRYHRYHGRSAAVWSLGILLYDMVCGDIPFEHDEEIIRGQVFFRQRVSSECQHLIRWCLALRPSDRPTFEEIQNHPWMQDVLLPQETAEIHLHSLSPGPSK

| SMILES | remaining binding at 1 µM [1] [%] | remaining binding at 1 µM [2] [%] | remaining binding at 1 µM [3] [%] | remaining binding at 1 µM [4] [%] | remaining binding at 1 µM [5] [%] | remaining binding at 1 µM [6] [%] | % control ([7]; EGFR(L747-E749de1, A750P)) [%] | % control ([7]; EGFR(L747-S752de1, P753S)) [%] | % control ([7]; EGFR(L747-T751de1, Sins)) [%] | % control ([7]; EPHAl) [%] | % control ([7]; FLT3(ITD)) [%] | % control ([7]; FLT3(ITD, D835V)) [%] | % control ([7]; FLT3(ITD, F691L)) [%] | remaining binding at 1 µM [8] [%] | remaining binding at 1 µM [9] [%] |
| --- | --- | --- | --- | --- | --- | --- | --- | --- | --- | --- | --- | --- | --- | --- | --- |
| CNc1nc(Nc2ccc(C(=O)N3CCOCC3)cc2OC)nc2[nH]cc(C#N)c12 [Example 1, 2-((2-methoxy-4-(morpholine-4-carbonyl)phenyl)amino)-4-(methylamino)-7H-pyrrolo[2,3-d]pyrimidine-5-carbonitrile] | 76 | 100 | 13 | 100 | 85 | 93 | 98.0 | 100.0 | 61.0 | 93.0 | 83.0 | 51.0 | 47.0 | 15 | 93 |
| CC1(Nc2nc(Nc3cnn([C@H]4CCN(C5COC5)C[C@@H]4F)c3Cl)nc3[nH]cc(C#N)c23)CC1 [Example 52, 2-((5-chloro-1-((3S,4S)-3-fluoro-1-(oxetane-3-yl)piperidine-4-yl)-1H-pyrazole-4-yl)amino)((1-methylcyclopropyl)amino)-7H-pyrrolo[2,3-d]pyrimidine-5-carbonitrile] | 100 | 89 | 3 | 41 | 57 | 100 | 38 | 49 | 68 | 58 | 0 | 0 | 0.7 | 9.7 | 100 |
| CCNc1nc(Nc2ccc(C(=O)N3CCC(N4CCOCC4)CC3)cc2OC)nc2[nH]cc(C(F)(F)F)c12 [Example 104, (4-((4-(ethylamino)-5-(trifluoromethyl)-7H-pyrrolo[2,3-d]pyrimidine-2-yl)amino)-3-methoxyphenyl)(4-morpholinopiperidine-1-yl)methanone] | 100 | 100 | 0.35 | 100 | 80 | 100 | 99 | 98 | 100 | 100 | 21 | 15 | 79 | 88 | 100 |
